Experiments:
[1] = target: T1, wild type BCR-Abl (Homo sapiens, UniProt P00519); test: Antiproliferative effect on Ba/F3 cells expressing wild type BCR-Abl; format: cell-based
T1 construct: expressed in transfected cells; host or cells: Ba/F3; the other entry of the earlier key: BCR (P11274, Breakpoint cluster region protein)
Procedure: (§1) 32D-p210 cells are plated into 96 well TC plates at a density of 15,000 cells per well. 50 μL of two fold serial dilutions of the test compound (Cmax is 40 μM) are added to each well (STI571 is included as a positive control). After incubating the cells for 48 hours at 37° C., 5% CO2, 15 μL of MTT (Promega) is added to each well and the cells are incubated for an additional 5 hours. The optical density at 570 nm is quantified spectrophotometrically and IC50 values, the concentration of compound required for 50% inhibition, determined from a dose response curve.
(§2) Compounds of the invention are tested for their antiproliferative effect on Ba/F3 cells expressing either wild type or the mutant forms of BCR-Abl (G250E, E255V, T315I, F317L, M351T) that confers resistance or diminished sensitivity to STI571. The antiproliferative effect of these compounds on the mutant-BCR-Abl expressing cells and on the non transformed cells were tested at 10, 3.3, 1.1 and 0.37 μM as described above (in media lacking IL3). The IC50 values of the compounds lacking toxicity on the untransformed cells were determined from the dose response curves obtained as describe above.

[2] = target: T2, G250E BCR-Abl (Homo sapiens, UniProt P00519, G250E); test: Antiproliferative effect on Ba/F3 cells expressing G250E BCR-Abl; format: cell-based; conditions: Ba/F3 cells expressing G250E mutant
T2 construct: expressed in transfected cells; host or cells: Ba/F3; the other entry of the earlier key: BCR (P11274, Breakpoint cluster region protein)
Procedure: as §1, §2

[3] = target: T3, E255V BCR-Abl (Homo sapiens, UniProt P00519, E255V); test: Antiproliferative effect on Ba/F3 cells expressing E255V BCR-Abl; format: cell-based; conditions: Ba/F3 cells expressing E255V mutant
T3 construct: expressed in transfected cells; host or cells: Ba/F3; the other entry of the earlier key: BCR (P11274, Breakpoint cluster region protein)
Procedure: as §1, §2

[4] = target: T4, T315I BCR-Abl (Homo sapiens, UniProt P00519, T315I); test: Antiproliferative effect on Ba/F3 cells expressing T315I BCR-Abl; format: cell-based; conditions: Ba/F3 cells expressing T315I mutant
T4 construct: expressed in transfected cells; host or cells: Ba/F3; the other entry of the earlier key: BCR (P11274, Breakpoint cluster region protein)
T4 sequence (P00519 229-512 T315I limits assumed): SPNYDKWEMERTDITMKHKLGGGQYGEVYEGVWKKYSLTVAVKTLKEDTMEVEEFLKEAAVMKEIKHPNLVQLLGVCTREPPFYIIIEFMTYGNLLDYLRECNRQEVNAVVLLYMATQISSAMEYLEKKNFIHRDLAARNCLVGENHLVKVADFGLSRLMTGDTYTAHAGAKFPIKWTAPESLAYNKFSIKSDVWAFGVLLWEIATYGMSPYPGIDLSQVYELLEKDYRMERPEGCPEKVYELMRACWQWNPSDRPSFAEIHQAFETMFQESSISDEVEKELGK
Procedure: as §1, §2

[5] = target: T5, F317L BCR-Abl (Homo sapiens, UniProt P00519, F317L); test: Antiproliferative effect on Ba/F3 cells expressing F317L BCR-Abl; format: cell-based; conditions: Ba/F3 cells expressing F317L mutant
T5 construct: expressed in transfected cells; host or cells: Ba/F3; the other entry of the earlier key: BCR (P11274, Breakpoint cluster region protein)
Procedure: as §1, §2

[6] = target: T6, M351T BCR-Abl (Homo sapiens, UniProt P00519, M351T); test: Antiproliferative effect on Ba/F3 cells expressing M351T BCR-Abl; format: cell-based; conditions: Ba/F3 cells expressing M351T mutant
T6 construct: expressed in transfected cells; host or cells: Ba/F3; the other entry of the earlier key: BCR (P11274, Breakpoint cluster region protein)
Procedure: as §1, §2

[7] = target: B-RAF (Homo sapiens, UniProt P15056); test: B-RAF kinase inhibition assay (IκBα substrate); format: biochemical; conditions: 20 μM ATP
Sequence of B-RAF (P15056 whole entry, species assumed): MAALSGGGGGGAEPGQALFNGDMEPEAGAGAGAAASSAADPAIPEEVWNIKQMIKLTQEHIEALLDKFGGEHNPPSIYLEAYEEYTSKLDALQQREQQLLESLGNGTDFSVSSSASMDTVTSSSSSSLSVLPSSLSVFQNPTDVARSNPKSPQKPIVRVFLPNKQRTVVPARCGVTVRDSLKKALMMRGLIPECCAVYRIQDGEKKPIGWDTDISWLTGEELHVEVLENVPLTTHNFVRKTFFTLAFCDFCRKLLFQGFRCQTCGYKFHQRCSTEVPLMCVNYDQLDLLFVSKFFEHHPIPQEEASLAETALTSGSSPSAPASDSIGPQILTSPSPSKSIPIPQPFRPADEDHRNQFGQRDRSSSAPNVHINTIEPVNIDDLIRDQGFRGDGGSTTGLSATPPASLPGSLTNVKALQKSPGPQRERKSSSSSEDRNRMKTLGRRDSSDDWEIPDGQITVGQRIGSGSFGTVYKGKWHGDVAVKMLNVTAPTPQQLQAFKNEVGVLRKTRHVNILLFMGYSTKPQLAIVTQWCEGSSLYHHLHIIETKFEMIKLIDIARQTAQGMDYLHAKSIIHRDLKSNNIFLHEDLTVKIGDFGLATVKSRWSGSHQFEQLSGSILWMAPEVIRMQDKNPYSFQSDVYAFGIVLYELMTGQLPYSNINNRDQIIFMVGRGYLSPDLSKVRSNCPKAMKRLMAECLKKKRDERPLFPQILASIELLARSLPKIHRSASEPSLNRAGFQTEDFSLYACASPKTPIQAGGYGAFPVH
Procedure: Compounds of the invention are tested for their ability to inhibit the activity of B-RAF. The assay is carried out in 384-well MaxiSorp plates (NUNC) with black walls and clear bottom. The substrate, IκBα is diluted in DPBS (1:750) and 15 μL is added to each well. The plates are incubated at 4° C. overnight and washed 3 times with TBST (25 mM Tris, pH 8.0, 150 mM NaCl and 0.05% Tween-20) using the EMBLA plate washer. Plates are blocked by Superblock (15 μL/well) for 3 hours at room temperature, washed 3 times with TBST and pat-dried. Assay buffer containing 20 μM ATP (10 μL) is added to each well followed by 100 nL or 500 nL of compound. B-RAF is diluted in the assay buffer (1 μL into 25 μl) and 10 μL of diluted B-RAF is added to each well (0.4 μg/well). The plates are incubated at room temperature for 2.5 hours. The kinase reaction is stopped by washing the plates 6 times with TBST. Phosph-IκBα (Ser32/36) antibody is diluted in Superblock (1:10,000) and 15 μL is added to each well. The plates are incubated at 4° C. overnight and washed 6 times with TBST. AP-conjugated goat-anti-mouse IgG is diluted in Superblock (1:1,500) and 15 μL is added to each well. Plates are incubated at room temperature for 1 hour and washed 6 times with TBST. […] Plates are read on Acquest or Analyst GT using a Fluorescence Intensity Nanxin BBT anion (505 dichroic mirror).

[8] = target: T7, Bmx (Homo sapiens, UniProt P51813); test: Upstate KinaseProfiler radio-enzymatic filter binding assay, Bmx; format: biochemical; conditions: at a concentration of 10 μM; read-out: percentage inhibition of Bmx
T7 construct: purchased Upstate (KinaseProfiler panel)
T7 sequence (P51813 1-675): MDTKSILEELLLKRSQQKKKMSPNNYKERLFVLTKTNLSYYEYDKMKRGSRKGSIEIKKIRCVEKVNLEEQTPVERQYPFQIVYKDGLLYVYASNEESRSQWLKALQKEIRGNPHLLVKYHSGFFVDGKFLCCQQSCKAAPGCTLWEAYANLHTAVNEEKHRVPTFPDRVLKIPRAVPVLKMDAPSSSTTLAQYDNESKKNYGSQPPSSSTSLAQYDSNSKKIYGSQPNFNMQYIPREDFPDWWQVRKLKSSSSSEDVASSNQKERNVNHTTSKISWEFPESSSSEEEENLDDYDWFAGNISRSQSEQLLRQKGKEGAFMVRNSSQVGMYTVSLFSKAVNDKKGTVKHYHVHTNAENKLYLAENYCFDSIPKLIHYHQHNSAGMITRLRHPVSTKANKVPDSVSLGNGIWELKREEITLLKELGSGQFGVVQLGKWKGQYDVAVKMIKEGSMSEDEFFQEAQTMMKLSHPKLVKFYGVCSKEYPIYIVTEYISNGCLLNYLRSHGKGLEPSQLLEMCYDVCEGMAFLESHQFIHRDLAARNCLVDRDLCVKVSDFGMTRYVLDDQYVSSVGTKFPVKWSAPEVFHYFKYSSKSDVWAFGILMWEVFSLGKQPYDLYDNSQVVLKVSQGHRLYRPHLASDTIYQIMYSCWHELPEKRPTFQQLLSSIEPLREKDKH
Procedure: (§3) Compounds of the invention are assessed for their ability to inhibit individual members of a panel of kinases (a partial, non-limiting list of kinases includes: BMX, CSK, TrkB, FGFR3, Fes, Lck, B-RAF, C-RAF, MKK6, SAPK2α and SAPK2β). The compounds are tested in duplicates at a final concentration of 10 μM following this generic protocol. Note that the kinase buffer composition and the substrates vary for the different kinases included in the “Upstate KinaseProfiler™” panel. Kinase buffer (2.5 μL, 10×—containing MnCl2 when required), active kinase (0.001-0.01 Units; 2.5 μL), specific or Poly(Glu4-Tyr) peptide (5-500 μM or 0.01 mg/ml) in kinase buffer and kinase buffer (50 μM; 5 μL) are mixed in an eppendorf on ice. […] The assay squares are transferred to a scintillation vial, 5 ml scintillation cocktail are added and ^32P incorporation (cpm) to the peptide substrate is quantified with a Beckman scintillation counter. Percentage inhibition is calculated for each reaction.

[9] = target: T8, c-Raf (Homo sapiens, UniProt P04049); test: Upstate KinaseProfiler radio-enzymatic filter binding assay, c-Raf; format: biochemical; conditions: at a concentration of 10 μM; read-out: percentage inhibition of c-Raf
T8 construct: purchased Upstate (KinaseProfiler panel)
T8 sequence (P04049 whole entry): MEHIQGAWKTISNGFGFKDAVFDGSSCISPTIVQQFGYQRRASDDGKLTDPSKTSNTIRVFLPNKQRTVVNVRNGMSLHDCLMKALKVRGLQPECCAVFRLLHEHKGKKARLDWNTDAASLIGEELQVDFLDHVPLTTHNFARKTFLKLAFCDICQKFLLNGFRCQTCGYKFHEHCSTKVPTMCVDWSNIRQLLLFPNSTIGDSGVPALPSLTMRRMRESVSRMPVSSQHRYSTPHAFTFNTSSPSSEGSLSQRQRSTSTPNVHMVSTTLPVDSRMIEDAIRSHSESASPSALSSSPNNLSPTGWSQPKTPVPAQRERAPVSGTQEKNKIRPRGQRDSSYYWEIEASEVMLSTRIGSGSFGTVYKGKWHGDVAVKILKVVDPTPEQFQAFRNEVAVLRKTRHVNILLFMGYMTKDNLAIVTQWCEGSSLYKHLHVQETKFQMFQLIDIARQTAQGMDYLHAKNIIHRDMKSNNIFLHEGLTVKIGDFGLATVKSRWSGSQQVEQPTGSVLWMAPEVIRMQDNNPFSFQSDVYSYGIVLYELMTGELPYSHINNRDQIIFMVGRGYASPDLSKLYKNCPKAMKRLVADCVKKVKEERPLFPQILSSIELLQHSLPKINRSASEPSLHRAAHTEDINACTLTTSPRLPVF
Procedure: as §3

[10] = target: T9, CSK (Homo sapiens, UniProt P41240); test: Upstate KinaseProfiler radio-enzymatic filter binding assay, CSK; format: biochemical; conditions: at a concentration of 10 μM; read-out: percentage inhibition of CSK
T9 construct: purchased Upstate (KinaseProfiler panel)
T9 sequence (P41240 whole entry): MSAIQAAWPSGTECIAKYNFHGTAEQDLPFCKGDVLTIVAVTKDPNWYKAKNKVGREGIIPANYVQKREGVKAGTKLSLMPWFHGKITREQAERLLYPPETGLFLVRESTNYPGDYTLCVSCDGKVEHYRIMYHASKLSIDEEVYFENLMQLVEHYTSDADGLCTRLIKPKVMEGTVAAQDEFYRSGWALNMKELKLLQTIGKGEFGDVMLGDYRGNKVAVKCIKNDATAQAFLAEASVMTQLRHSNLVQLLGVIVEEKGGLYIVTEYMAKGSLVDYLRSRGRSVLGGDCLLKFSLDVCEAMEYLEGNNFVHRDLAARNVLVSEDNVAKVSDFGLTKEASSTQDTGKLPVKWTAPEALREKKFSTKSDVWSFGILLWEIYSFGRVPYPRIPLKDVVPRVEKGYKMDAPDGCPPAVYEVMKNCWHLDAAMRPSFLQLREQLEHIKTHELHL
Procedure: as §3

[11] = target: T10, Fes (Homo sapiens, UniProt P07332); test: Upstate KinaseProfiler radio-enzymatic filter binding assay, Fes; format: biochemical; conditions: at a concentration of 10 μM; read-out: percentage inhibition of Fes
T10 construct: purchased Upstate (KinaseProfiler panel)
T10 sequence (P07332 whole entry): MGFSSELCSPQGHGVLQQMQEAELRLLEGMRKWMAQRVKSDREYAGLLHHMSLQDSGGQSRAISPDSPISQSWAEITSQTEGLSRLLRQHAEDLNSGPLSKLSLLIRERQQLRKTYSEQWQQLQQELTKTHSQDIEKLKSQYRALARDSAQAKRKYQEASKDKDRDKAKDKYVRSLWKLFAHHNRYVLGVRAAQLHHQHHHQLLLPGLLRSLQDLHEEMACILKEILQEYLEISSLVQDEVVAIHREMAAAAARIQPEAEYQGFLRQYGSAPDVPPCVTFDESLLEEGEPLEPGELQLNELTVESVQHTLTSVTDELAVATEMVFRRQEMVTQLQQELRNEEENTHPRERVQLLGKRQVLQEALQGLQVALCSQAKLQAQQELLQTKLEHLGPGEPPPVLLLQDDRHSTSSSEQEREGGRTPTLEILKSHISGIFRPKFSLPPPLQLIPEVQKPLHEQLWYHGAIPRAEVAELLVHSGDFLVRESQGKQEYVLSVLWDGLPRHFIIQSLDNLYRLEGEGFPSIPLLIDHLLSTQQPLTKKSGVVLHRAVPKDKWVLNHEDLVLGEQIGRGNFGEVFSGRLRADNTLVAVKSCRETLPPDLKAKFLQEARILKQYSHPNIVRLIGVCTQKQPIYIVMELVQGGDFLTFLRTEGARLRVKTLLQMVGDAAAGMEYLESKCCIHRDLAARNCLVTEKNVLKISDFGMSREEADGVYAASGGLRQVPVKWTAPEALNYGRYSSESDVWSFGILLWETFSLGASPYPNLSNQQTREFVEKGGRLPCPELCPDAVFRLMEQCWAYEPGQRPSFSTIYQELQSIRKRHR
Procedure: as §3

[12] = target: T11, Lck (Homo sapiens, UniProt P06239); test: Upstate KinaseProfiler radio-enzymatic filter binding assay, Lck; format: biochemical; conditions: at a concentration of 10 μM; read-out: percentage inhibition of Lck
T11 construct: purchased Upstate (KinaseProfiler panel)
T11 sequence (P06239 whole entry): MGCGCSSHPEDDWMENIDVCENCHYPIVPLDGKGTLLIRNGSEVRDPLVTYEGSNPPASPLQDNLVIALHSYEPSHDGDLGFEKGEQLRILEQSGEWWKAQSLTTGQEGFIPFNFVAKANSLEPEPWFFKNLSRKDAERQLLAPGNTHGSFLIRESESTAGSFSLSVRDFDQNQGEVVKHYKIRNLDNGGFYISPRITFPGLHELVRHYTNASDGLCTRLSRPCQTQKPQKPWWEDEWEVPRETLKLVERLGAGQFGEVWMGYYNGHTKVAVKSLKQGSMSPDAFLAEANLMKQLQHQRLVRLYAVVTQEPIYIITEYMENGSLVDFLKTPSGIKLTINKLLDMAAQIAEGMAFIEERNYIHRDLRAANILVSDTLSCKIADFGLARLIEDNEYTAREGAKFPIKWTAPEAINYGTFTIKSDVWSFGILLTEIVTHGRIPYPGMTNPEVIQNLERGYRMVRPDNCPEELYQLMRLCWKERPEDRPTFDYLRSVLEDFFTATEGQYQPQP
Procedure: as §3

[13] = target: T12, SAPK2β (Homo sapiens, UniProt Q15759); test: Upstate KinaseProfiler radio-enzymatic filter binding assay, SAPK2β; format: biochemical; conditions: at a concentration of 10 μM; read-out: percentage inhibition of SAPK2β
T12 construct: purchased Upstate (KinaseProfiler panel)
T12 sequence (Q15759 whole entry): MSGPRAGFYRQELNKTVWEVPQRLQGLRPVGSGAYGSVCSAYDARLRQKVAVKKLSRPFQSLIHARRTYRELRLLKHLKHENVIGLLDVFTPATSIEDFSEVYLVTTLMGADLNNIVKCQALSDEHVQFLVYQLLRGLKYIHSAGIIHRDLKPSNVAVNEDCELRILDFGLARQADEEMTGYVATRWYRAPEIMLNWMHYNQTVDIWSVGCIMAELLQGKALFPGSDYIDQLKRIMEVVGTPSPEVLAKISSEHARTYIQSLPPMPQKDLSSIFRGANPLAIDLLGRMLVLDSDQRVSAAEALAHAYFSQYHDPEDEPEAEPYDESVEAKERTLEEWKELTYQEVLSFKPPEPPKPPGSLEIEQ
Procedure: as §3

[14] = target: T13, TrkB (Homo sapiens, UniProt Q16620); test: Upstate KinaseProfiler radio-enzymatic filter binding assay, TrkB; format: biochemical; conditions: at a concentration of 10 μM; read-out: percentage inhibition of TrkB
T13 construct: purchased Upstate (KinaseProfiler panel)
T13 sequence (Q16620 32-822): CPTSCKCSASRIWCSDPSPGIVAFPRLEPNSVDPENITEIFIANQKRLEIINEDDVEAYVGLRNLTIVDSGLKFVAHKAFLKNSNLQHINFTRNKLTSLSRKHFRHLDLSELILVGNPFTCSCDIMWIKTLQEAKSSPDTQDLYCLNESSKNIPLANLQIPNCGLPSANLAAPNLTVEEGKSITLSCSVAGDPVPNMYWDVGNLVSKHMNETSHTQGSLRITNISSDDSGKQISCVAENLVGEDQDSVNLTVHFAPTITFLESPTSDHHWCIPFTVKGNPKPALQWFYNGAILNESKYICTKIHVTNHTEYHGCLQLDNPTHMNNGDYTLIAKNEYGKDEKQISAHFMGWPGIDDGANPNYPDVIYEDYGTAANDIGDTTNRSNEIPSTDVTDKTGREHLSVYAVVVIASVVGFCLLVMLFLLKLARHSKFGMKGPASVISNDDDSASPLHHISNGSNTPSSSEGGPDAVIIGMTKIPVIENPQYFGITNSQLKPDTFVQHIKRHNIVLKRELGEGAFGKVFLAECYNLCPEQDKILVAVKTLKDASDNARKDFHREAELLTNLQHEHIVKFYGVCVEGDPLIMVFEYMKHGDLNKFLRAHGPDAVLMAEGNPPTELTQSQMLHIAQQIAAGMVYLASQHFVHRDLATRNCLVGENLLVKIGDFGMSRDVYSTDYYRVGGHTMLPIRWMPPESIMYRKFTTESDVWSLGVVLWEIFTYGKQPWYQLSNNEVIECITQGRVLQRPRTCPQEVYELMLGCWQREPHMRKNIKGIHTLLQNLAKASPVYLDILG
Procedure: as §3

[15] = target: T14, FGFR3 (Homo sapiens, UniProt P22607); test: Upstate KinaseProfiler radio-enzymatic filter binding assay, FGFR3; format: biochemical; conditions: at a concentration of 10 μM; read-out: percentage inhibition of FGFR3
T14 construct: purchased Upstate (KinaseProfiler panel)
Procedure: as §3

[16] = target: T15, MKK6 (Homo sapiens, UniProt P52564); test: Upstate KinaseProfiler radio-enzymatic filter binding assay, MKK6; format: biochemical; conditions: at a concentration of 10 μM; read-out: percentage inhibition of MKK6
T15 construct: purchased Upstate (KinaseProfiler panel)
T15 sequence (P52564 1-334): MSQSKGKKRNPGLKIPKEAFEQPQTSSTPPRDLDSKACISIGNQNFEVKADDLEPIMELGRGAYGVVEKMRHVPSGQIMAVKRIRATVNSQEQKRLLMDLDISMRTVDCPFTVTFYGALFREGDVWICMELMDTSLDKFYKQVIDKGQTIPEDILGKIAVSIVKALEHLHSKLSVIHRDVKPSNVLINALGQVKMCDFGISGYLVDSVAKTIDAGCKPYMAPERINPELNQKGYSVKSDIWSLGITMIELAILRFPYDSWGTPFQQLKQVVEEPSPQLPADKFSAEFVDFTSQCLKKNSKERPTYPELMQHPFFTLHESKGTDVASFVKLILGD
Procedure: as §3

[17] = target: T16, SAPK2α (Homo sapiens, UniProt Q16539); test: Upstate KinaseProfiler radio-enzymatic filter binding assay, SAPK2α; format: biochemical; conditions: at a concentration of 10 μM; read-out: percentage inhibition of SAPK2α
T16 construct: purchased Upstate (KinaseProfiler panel)
T16 sequence (Q16539 whole entry): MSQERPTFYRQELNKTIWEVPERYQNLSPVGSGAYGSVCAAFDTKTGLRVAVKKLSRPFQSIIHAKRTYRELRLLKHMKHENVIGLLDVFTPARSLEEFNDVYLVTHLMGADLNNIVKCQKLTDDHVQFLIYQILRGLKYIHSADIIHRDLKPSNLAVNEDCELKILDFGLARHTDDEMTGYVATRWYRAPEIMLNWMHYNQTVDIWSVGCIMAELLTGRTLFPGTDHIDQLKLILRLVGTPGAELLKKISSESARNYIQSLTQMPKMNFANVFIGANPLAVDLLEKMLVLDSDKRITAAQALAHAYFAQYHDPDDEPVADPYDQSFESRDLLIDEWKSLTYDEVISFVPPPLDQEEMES
Procedure: as §3

| SMILES | IC50 [1] [nM] | IC50 [2] [nM] | IC50 [3] [nM] | IC50 [4] [nM] | IC50 [5] [nM] | IC50 [6] [nM] | IC50 [7] [nM] | inhibition at 10 µM [8] [%] | inhibition at 10 µM [9] [%] | inhibition at 10 µM [10] [%] | inhibition at 10 µM [11] [%] | inhibition at 10 µM [12] [%] | inhibition at 10 µM [13] [%] | inhibition at 10 µM [14] [%] | inhibition at 10 µM [15] [%] | inhibition at 10 µM [16] [%] | inhibition at 10 µM [17] [%] |
| --- | --- | --- | --- | --- | --- | --- | --- | --- | --- | --- | --- | --- | --- | --- | --- | --- | --- |
| Cc1cn(-c2cc(C(=O)Nc3ccc(C)c(NC(=O)n4ccc5c(Nc6cccc(N(C)C)c6)ncnc54)c3)cc(C(F)(F)F)c2)cn1 [Example 3, 4-(3-Dimethylamino-phenylamino)-pyrrolo[2,3-d]pyrimidine-7-carboxylic acid {2-methyl-5-[3-(4-methyl-imidazol-1-yl)-5-trifluoromethyl-benzoylamino]-phenyl}-amide] | 22 | 170 | 220 | 370 | 50 | 29 | 32 | 100 | 83 | 90 | 82 | 95 | 95 | 100 | – | – | – |
| Cc1cn(-c2cc(C(=O)Nc3ccc(C)c(NC(=O)n4ccc5c(Nc6cccc(C(N)=O)c6)ncnc54)c3)cc(C(F)(F)F)c2)cn1 [Example 7, 4-(3-Carbamoyl-phenylamino)-pyrrolo[2,3-d]pyrimidine-7-carboxylic acid {2-methyl-5-[3-(4-methyl-imidazol-1-yl)-5-trifluoromethyl-benzoylamino]-phenyl}-amide] | 5 | 47 | 31 | 115 | 9 | 5 | – | 100 | 99 | 100 | 98 | 96 | 100 | 98 | 95 | 98 | 100 |
